Measured values: US6372740B1, “2-aryl-8-oxodihydropurine derivative, process for the producing the same, medicinal compositions containing the same, and intermediates thereof” (Dainippon Pharmaceutical Co., Ltd., priority 1997, dated 2002)

Columns and labels:
[1] = target: T1, BZω3 receptor (Rattus norvegicus, UniProt P16257); test: BZω3 (peripheral) benzodiazepine receptor binding assay, [3H] 4'-chlorodiazepam (Ro 5-4864); settings: rat kidney membrane, [3H] Ro 5-4864 0.5 nM, 150 minutes at 0° C.; read-out: ω3 IC50
T1 construct: from tissue; host or cells: rat (Wistar) kidney membrane fraction
Protocol: Experiment 1: Central (ω1,ω2) and Peripheral (ω3) Benzodiazepine Receptor Binding Assays
BZω1 and BZω2 receptor binding assays and the preparation of receptor membrane fractions therefor were carried out according to the method of Stephens, D. N. et al. [cf., J. Pharmacol. Exp. Ther., 253, 334-343 (1990)], and BZω3 receptor binding assay and the preparation of receptor membrane fraction therefor were done according to the method of Schoemaker, H. [cf, J. Pharmacol. Exp. Ther., 225, 61-69 (1983)] each with slight modification.
Receptor membrane fractions for ω1, ω2 and ω3 were prepared from the cerebellum (ω1), spinal cord (ω2) or kidney (ω3) in 7-8 week old male rats of Wistar strain, respectively, by the procedure described below.
After the cerebellum or spinal cord was homogenized with 20 volumes of ice-cold 50 mM Tris-citrate buffer (pH 7.1), the homogenate was centrifuged for 15 minutes at 40,000 g. The pellet obtained was washed 4 times by the same procedure, and frozen and stored for 24 hours at −60° C. The resulting pellet, after being thawed, washed with the buffer and centrifuged, was suspended in the buffer I for the binding assay (50 mM Tris-HCl buffer containing 120 mM NaCl, 5 mM KCl, 2 mM CaCl2 and 1 mM MgCl2; pH 7.4) and the suspension thus obtained (containing 1 g wet tissue/40 ml) was used for the BZω1 and BZω2receptor binding assays. On the other hand, the kidney was homogenized with 20 volumes of the ice-cold buffer II for the binding assay (50 mM Na-K phosphate buffer containing 100 mM NaCl; pH 7.4), and the mixture was filtered through 4 sheets of gauze, and centrifuged for 20 minutes at 40,000 g. The pellet obtained was suspended in the buffer II and the suspension (containing 1 g wet tissue/100 ml) was used for the binding assay as BZω3 receptor membrane source.
[^3H] Flumazenil (Ro 15-1788) (final concentration: 0.3 nM for ω1, and 1 nM for ω2) and flunitrazepam (final concentration: 10 μM) were used for the BZω1 or BZω2 receptor binding assays as the isotope-labeled and unlabeled ligands, respectively. For the BZω3 receptor binding assay, [^3H] 4′-chlorodiazepam (7-chloro-1,3-dihydro-1-methyl-5-(4-chlorophenyl)-2H-1,4-diazepin-2-one) (Ro 5-4864) (final concentration: 0.5 nM) and diazepam (final concentration: 100 μM) were used as the isotope-labeled and unlabeled ligands, respectively. Incubation was performed for 30 minutes at 37° C. in the BZω1 or BZω2 receptor binding assays, and for 150 minutes at 0° C. in the BZω3 receptor binding assay. The BZω1 or BZω2 receptor binding assays were carried out in the presence of bicuculline (final concentration: 100 μM).
The binding assay was performed by the following procedure. After adding each test compound at certain known concentrations, a [^3H] ligand, and the buffer I or II to each test tube, each assay was started by addition of membrane preparation (total volume of 1 ml). After incubation, the assay was terminated by filtration with suction through a Whatman GF/B glass fiber filter using a cell harvester (Brandel, USA). The filters were rapidly washed 3 times with 5 ml of ice-cold 50 mM Tris-HCl buffer (pH 7.7) for ω1 and ω2, or the buffer II for ω3, and transferred to scintillation vials containing 10 ml liquid scintillation cocktail (ACS-II, Amersham, USA). After being allowed to stand for a specific period, retained radioactivity was counted by a liquid scintillation spectrometer. Specific binding of [^3H] ligands was calculated as the difference between amounts of radioactivity bound in the presence and absence of excess unlabeled ligands. The concentration of the test compounds causing 50% inhibition of specific binding of the [3H] ligand (IC50) was determined by probit analysis.

[2] = tested on: mice (stay in light compartment); test: Light and dark box test (anti-anxiety effect); format: in vivo; settings: Mus musculus, po, 0.5 h, male Std-ddY mice, 30 minutes before test, Dunnett test 5%, read-out: Anti-anxiety effect MED (minimum effective dose)
Description: Experiment 2: Light and Dark Box Test (Anti-anxiety Effect)
Anti-anxiety effect of test compounds was examined in a box with light and dark compartments according to the method of Crawley, J. and Goodwin, F. K. [cf., Pharmacol. Biochem. Behav., 13, 167-170 (1980)] with slight modification.
Light and dark box test is a useful, simple and handy method for behaviorally and pharmacologically examining anti-anxiety effect of the drugs, by utilizing the habit of rodents such as mice and rats, etc. which prefer to stay in a dark place, and regarding as positive drug effect the increase of the relative stay of the animals in the light compartment which is an uncomfortable place for the animals. A number of drugs such as cholecystokinin B type receptor antagonists and benzodiazepine drugs, show positive effect in this test.
Light and dark box test was carried out using the test box device (35×17×15 cm) which comprises: a light compartment (20×17×15 cm) consisting of transparent acrylic plates and highly illuminated by an incandescent lamp (1,700 lux); a dark compartment (15×17×15 cm) being made of black acrylic plates connected to the light compartment; and at the boundary of compartments, an opening (4.4×5.0 cm) in which mice can go through freely between two compartments.
Male mice of Std-ddY strain weighing 25-30 g were used in a group of 10. Each trial was started by placing a mouse in the center of the light compartment 30 minutes after oral administration of a test compound, and the time spent by the mouse in the light compartment during a 5 minute observation period was measured, and the rate of the stay of mice in the light compartment to the whole time spent in the experiment was calculated (rate of light compartment stay, %).
The anti-anxiety effect of the test compound was represented by the minimum effective dose (MED) at which the increasing rate of the relative stay in the light compartment was regarded as statistically significant (Dunnett test, significance level: 5%). 4.

[3] = tested on: mice (isoniazid-induced clonic convulsion); test: Isoniazid-induced clonic convulsion test (anti-convulsant effect); format: in vivo, mouse; settings: male Std-ddY mice, oral, 30 minutes before isoniazid 200 mg/kg s.c.; dose prolonging onset time by 25%
Description: Experiment 3: Isoniazid-induced Clonic Convulsion Test (Anti-convulsant Effect)
Isoniazid inhibits glutamate decarboxylase that catalyzes GABA biosynthesis, decrease brain GABA levels, and induces clonic convulsion. According to the method of Auta, J. et al. [cf., J. Pharmacol. Exp. Ther., 265, 649-656 (1993)] with slight modification, antagonistic effects of the test compounds on isoniazid-induced clonic convulsion were examined. […] Such drugs are BZ receptor agonists represented by diazepam, neurosteroids such as allopregnanolone, allotetrahydro-deoxycorticosterone (THDOC) and BZω3 receptor agonists, which enhance the synthesis of neurosteroids.
Male mice of Std-ddY strain weighing 22-24 g were used in a group of 6. Thirty minutes after oral administration of the test compounds, mice were injected with isoniazid (200 mg/kg) subcutaneously, and immediately thereafter, the mice were placed individually in plastic observation cages. The onset time of clonic convulsion was measured (cut-off time: 90 minutes). The latency in the control group was about 40 minutes.
Anti-isoniazid effect of the test compounds was expressed by the dose, which prolonged the onset time by 25% compared to that in the vehicle group (ED25). The ED25 value was calculated according to the Probit method.

[4] = tested on: mice (lethality); test: Acute toxicity; format: in vivo, mouse; settings: male Std-ddY mice, oral 2000 mg/kg, observed for 7 days
Protocol: Experiment 4: Acute Toxicity
Male mice of Std-ddY strain weighing 25-30 g were used in a group of 10 animals for examining on the compound of Example 1. A test compound was suspended in 0.5% tragacanth and administered orally to the mice at a dose of 2000 mg/kg.

Row | Structure (SMILES) | IC50 [1] [nM] | melting point [°C] | minimal effective dose [2] [µg/kg] | Anti-convulsant effect ED25 [3] [mg/kg] | lethality [4]
1 | CCCN(CCC)C(=O)Cn1c(=O)n(CC)c2cnc(-c3ccc(Cl)cc3)nc21 [Example 116] | 2.1 | 158 to 159 | 10 | – | –
2 | CN(Cc1ccccc1)C(=O)Cn1c(=O)n(C)c2cnc(-c3ccc(Cl)cc3)nc21 [Example 137, N-benzyl-7,8-dihydro-N-methyl-7-methyl-8-oxo-2-(4-chlorophenyl)-9H-purin-9-acetamide] | 1.3 | 241 to 242 | 1 to 3 | – | –
3 | CN(C(=O)Cn1c(=O)n(C)c2nc(-c3ccccc3)ncc21)c1ccccc1 [Example 2, 8,9-dihydro-9-methyl-N-methyl-8-oxo-2-phenyl-N-phenyl-7H-purin-7-acetamide] | 1.2 | 147 to 148 | 1 to 3 | – | –
4 | CCN(C(=O)Cn1c(=O)n(C)c2nc(-c3ccc(F)cc3)ncc21)c1ccccc1 [Example 12, N-ethyl-8,9-dihydro-2-(4-fluorophenyl)-9-methyl-8-oxo-N-phenyl-7H-purin-7-acetamide] | 1.5 | 211 to 212 | 10 | – | –
5 | CCCN(CCC)C(=O)Cn1c(=O)n(C)c2cnc(-c3ccccc3)nc21 [Example 106, 7,8-dihydro-7-methyl-8-oxo-2-phenyl-N,N-dipropyl-9H-purin-9-acetamide] | 1.2 | – | 1 to 3 | 100 | –
6 | CCN(Cc1ccccc1)C(=O)Cn1c(=O)n(C)c2cnc(-c3ccc(Cl)cc3)nc21 [Example 147, N-benzyl-N-ethyl-7,8-dihydro-7-methyl-8-oxo-2-(4-chlorophenyl)-9H-purin-9-acetamide] | 1.1 | 172 to 173 | 1 to 3 | – | –
7 | CCN(C(=O)Cn1c(=O)n(C)c2nc(-c3ccccc3)ncc21)c1ccccc1 [Example 1, N-ethyl-8,9-dihydro-9-methyl-8-oxo-2-phenyl-N-phenyl-7H-purin-7-acetamide] | 2 | – | 1 to 3 | – | no lethality
8 | CN(C(=O)Cn1c(=O)n(C)c2nc(-c3ccc(F)cc3)ncc21)c1ccccc1 [Example 5, 8,9-dihydro-2-(4-fluorophenyl)-9-methyl-N-methyl-8-oxo-N-phenyl-7H-purin-7-acetamide] | 1.3 | 169 to 170 | 1 to 3 | – | –

Stronger by IC50 [1], values ahead:

Row | IC50 [1] [nM] | melting point [°C] | Structure (SMILES) | minimal effective dose [2] [µg/kg] | Anti-convulsant effect ED25 [3] [mg/kg] | lethality [4]
9 | 0.79 | 170 to 171 | CN(Cc1ccccc1)C(=O)Cn1c(=O)n(C)c2nc(-c3ccc(F)cc3)ncc21 [Example 50] | 100 | – | –
10 | 0.73 | 172 to 174 | COc1ccc(N(C)C(=O)Cn2c(=O)n(C)c3cnc(-c4ccccc4)nc32)cc1 [Example 163] | 100 | – | –
11 | 0.66 | 98 to 99 | CCCN(CCC)C(=O)Cn1c(=O)n(CC)c2cnc(-c3ccccc3)nc21 [Example 107, 7-ethyl-7,8-dihydro-8-oxo-2-phenyl-N,N-dipropyl-9H-purin-9-acetamide] | 1 to 3 | 33.0 | –
12 | 0.73 | 135 to 137 | CCCN(CCC)C(=O)Cn1c(=O)n(C)c2cnc(-c3ccc(Cl)cc3)nc21 [Example 112] | – | 73.6 | –
